Source: patent US20240130675A1, “Methods for Treating Autism Spectrum Disorder” (The General Hospital Corporation, priority 2021, published 2024)

Legend:
PgACC glutamate activity = PgACC glutamate activity by 2D-JPRESS 1H MRS at 4T, pre- and post-treatment; assay type: in vivo, human
Protocol: Glutamate response to memantine therapy in the PgACC was assessed by acquiring spectroscopic MRI pre- and post-treatment.
Healthy Control Participants were enrolled for spectroscopic neuro-imaging data acquisition to form a control group. Healthy controls (HC) were age, sex, and IQ-matched with enrolled ASD participants. HC participants were with no significant autistic traits, as screened by SRS-2 raw score of<60, and with no major psychopathology, as established by the K-SADS-E and confirmed by clinical diagnostic interview.
Data Acquisition—Proton spectra were acquired at 4T using a two-dimensional J-resolved (2D-JPRESS) ^1HMRS protocol. A 2D-JPRESS sequence was chosen to improve reliability for spectral fitting of the metabolites(Gonenc et al., 2010; Moore et al., 2007), allow analysis of glutamate alone versus ratios or combined measures (e.g., Glx), and confirm that measured metabolic differences truly arise from differences in metabolic levels and not from T2 relaxation time differences. […] Data were collected in 12 TE-stepped spectra with the echo-time ranging from 30 to 250 ms in 20 ms increments, with TR=2s, averages=16, scan duration=7 minutes.
Data Processing: Spectral analysis was conducted in a fully automated fashion using the commercially available LCModel package (version 6.2-1F). After the 2D-JPRESS dataset was resolved into a series of one-dimensional spectra where each spectrum was modeled and fitted with GAMMA simulated96 J-resolved basis sets, glutamate activity levels were derived from the total integral across the J-series. Glutamate transverse relaxation time (T2) was obtained from the raw peak vs. TE decay curve fitted with Levenberg-Marquardt algorithm using an exponential decay function (for glutamate T2) convoluted with a polynomial function (for glutamate J-coupling) which was obtained from the GAMMA simulation run with previously measured spectral parameters (Govindaraju, Young, & Maudsley, 2000). Data quality was assessed by LCModel calculated Full Width Half Maximum (FWHM), Signal to Noise Ratio (SNR) and Cramer-Rao Lower Bounds (CRLB).
The primary outcome was analyzed using Pearson's chi-square test at the a priori defined significance level of 0.05. Secondary measures of efficacy were analyzed using mixed-effects regression models with robust standard errors to account for the repeated measures on each subject. The primary and secondary measures were compared between memantine versus placebo as well as between those with high versus normal baseline glutamate activity levels. Participants were categorized as having high versus normal glutamate activity levels at baseline using z-scores. The population mean and SD for z-score calculations were derived from healthy control glutamate activity levels (baseline and endpoint). Glutamate activity levels with z-scores≥1 were categorized as high glutamate activity levels, those with z-scores<1 and >−1 were categorized as normal glutamate activity levels and those with z-scores≤−1 were categorized as low glutamate activity levels. Changes in PgACC glutamate activity levels within groups were tested using paired t-tests and changes between groups were tested using two-sample t-tests. We also performed ROC curve analyses to determine the predictive utility of baseline PgACC glutamate activity levels in identifying treatment responders within the memantine and placebo groups. All analyses apart from the analysis of the primary outcome were considered exploratory. Analyses were performed using a modified intent-to-treat analysis set which included all randomized patients who were regarded exposed to study medication (completed at least two weeks of treatment) and had at least one follow-up assessment.

ASD behaviors = conditions: 12 week, mean dose 5 mg/day; cited from earlier work

SMILES: CC12CC3CC(C)(C1)CC(N)(C3)C2 [MEM, memantine]
- PgACC Glutamate Activity BL (PgACC glutamate activity; High-Glu ASD Sample, MEM Group N = 10, baseline): 109.1 ± 11.9
- PgACC Glutamate Activity EP (PgACC glutamate activity; High-Glu ASD Sample, MEM Group N = 10, endpoint): 78.7 ± 13.6
- PgACC Glutamate Activity MD (PgACC glutamate activity; High-Glu ASD Sample, MEM Group N = 10, mean difference BL to EP): −30.3 ± 23.3
- PgACC Glutamate Activity ASD vs. HC MD @ EP (PgACC glutamate activity; High-Glu ASD Sample, MEM Group N=10 vs HC N = 13): −2.5 ± 34.3
- PgACC Glutamate Activity ASD vs. HC MD @ BL (PgACC glutamate activity; High-Glu ASD Sample, MEM Group N=10 vs HC N = 16): −32.5 ± 32.4
- PgACC Glutamate Activity BL (PgACC glutamate activity; High-Glu ASD Sample, MEM Responders N = 8, baseline): 111.1 ± 12.5
- PgACC Glutamate Activity EP (PgACC glutamate activity; High-Glu ASD Sample, MEM Responders N = 8, endpoint): 75.8 ± 13.6
- PgACC Glutamate Activity MD (PgACC glutamate activity; High-Glu ASD Sample, MEM Responders N = 8, mean difference BL to EP): −35.4 ± 23.5
- PgACC Glutamate Activity ASD vs. HC MD @ EP (PgACC glutamate activity; High-Glu ASD Sample, MEM Responders N=8 vs HC N = 13): 0.5 ± 35.7
- PgACC Glutamate Activity ASD vs. HC MD @ BL (PgACC glutamate activity; High-Glu ASD Sample, MEM Responders N=8 vs HC N = 16): −34.5 ± 34.4
- MD in Glu w/ Tx: MD MEM vs PBO (PgACC glutamate activity; High-Glu ASD, MEM = 10 PBO = 8): −21.5 ± 37.3
- MD in Glu w/ Tx: MD H-Glu vs N-Glu (PgACC glutamate activity; MEM Group, H-Glu N = 10 vs N-Glu N = 5): 32.2 ± 43.1
- PgACC Glutamate Activity BL (PgACC glutamate activity; Normal-Glu ASD Sample, MEM Group/Non-Responders N = 5, baseline): 84.1 ± 8.6
- PgACC Glutamate Activity EP (PgACC glutamate activity; Normal-Glu ASD Sample, MEM Group/Non-Responders N = 5, endpoint): 86.0 ± 2.8
- PgACC Glutamate Activity MD (PgACC glutamate activity; Normal-Glu ASD Sample, MEM Group/Non-Responders N = 5, mean difference BL to EP): 1.9 ± 10.8
- PgACC Glutamate Activity ASD vs. HC MD @ EP (PgACC glutamate activity; Normal-Glu ASD Sample, MEM Group/Non-Responders N=5 vs HC N = 13): −9.7 ± 37.2
- MD in Glu w/ Tx: MD MEM vs PBO (PgACC glutamate activity; Normal-Glu ASD, MEM = 5): −6.3 ± 24.1
- PgACC Glutamate Activity ASD vs. HC MD @ BL (PgACC glutamate activity; Unselected ASD Sample, MEM Group (MEM=19) vs HC N = 16): −19.8 ± 34.5^[MEM=19]
- PgACC Glutamate Activity BL (PgACC glutamate activity; Unselected ASD Sample, MEM Group N = 15, baseline, mean ± SD): 100.8 ± 16.1
- PgACC Glutamate Activity EP (PgACC glutamate activity; Unselected ASD Sample, MEM Group N = 15, endpoint, mean ± SD): 81.2 ± 11.6
- PgACC Glutamate Activity MD (PgACC glutamate activity; Unselected ASD Sample, MEM Group N = 15, mean difference BL to EP): −19.6 ± 25.1
- PgACC Glutamate Activity ASD vs. HC MD @ EP (PgACC glutamate activity; Unselected ASD Sample, MEM Group N=15 vs HC N = 13): −4.9 ± 31.2
- PgACC Glutamate Activity BL (PgACC glutamate activity; Unselected ASD Sample, MEM Non-responders N = 7, baseline): 88.9 ± 10.9
- PgACC Glutamate Activity EP (PgACC glutamate activity; Unselected ASD Sample, MEM Non-responders N = 7, endpoint): 87.3 ± 3.9
- PgACC Glutamate Activity MD (PgACC glutamate activity; Unselected ASD Sample, MEM Non-responders N = 7, mean difference BL to EP): −1.6 ± 10.7
- PgACC Glutamate Activity ASD vs. HC MD @ EP (PgACC glutamate activity; Unselected ASD Sample, MEM Non-responders N=7 vs HC N = 13): −11.1 ± 33.1
- PgACC Glutamate Activity ASD vs. HC MD @ BL (PgACC glutamate activity; Unselected ASD Sample, MEM Non-responders N=7 vs HC N = 16): −12.3 ± 34.9
- PgACC Glutamate Activity BL (PgACC glutamate activity; Unselected ASD Sample, MEM Responders N = 8, baseline): 111.1 ± 12.5
- PgACC Glutamate Activity EP (PgACC glutamate activity; Unselected ASD Sample, MEM Responders N = 8, endpoint): 75.8 ± 13.6
- PgACC Glutamate Activity MD (PgACC glutamate activity; Unselected ASD Sample, MEM Responders N = 8, mean difference BL to EP): −35.4 ± 23.5
- PgACC Glutamate Activity ASD vs. HC MD @ EP (PgACC glutamate activity; Unselected ASD Sample, MEM Responders N=8 vs HC N = 13): 0.48 ± 35.7
- PgACC Glutamate Activity ASD vs. HC MD @ BL (PgACC glutamate activity; Unselected ASD Sample, MEM Responders N=8 vs HC N = 16): -34.5 ± 34.4
- MD in Glu w/ Tx: MD MEM vs PBO (PgACC glutamate activity; Unselected ASD, MEM = 15, PBO = 16): −12.2 ± 38.3
- Magnitude of PgACC glutamate reduction, memantine versus placebo (PgACC glutamate activity; high glutamate sample): significantly higher
- PgACC glutamate activity with treatment versus HCs (PgACC glutamate activity; high glutamate sample, memantine group): not significantly different from HCs
- Change with treatment in PgACC glutamate activity, baseline to endpoint (PgACC glutamate activity; high glutamate sample, memantine treated group): significant reduction
- Change with treatment in PgACC glutamate activity, baseline to endpoint (PgACC glutamate activity; normal-glutamate sample): did not change significantly
- Change with treatment in PgACC glutamate activity, baseline to endpoint (PgACC glutamate activity; unselected sample of ASD, memantine treated group): significant reduction
- ASD behaviors relative to placebo response (ASD behaviors): no improvement in ASD behaviors
